Results published in US4156777A, “Process for producing glucopyranose-nitrosourea compounds and novel compounds included therein” (Tokyo Tanabe Company, Limited, priority 1977, dated 1979).
Values after ≈ are worked out from the molar mass of the structure shown.

How the values were obtained:
[1] = test system: Escherichia coli NIHJ JC-2; assay: Antibacterial activity, broth-dilution method; type: cell-based; settings: NIHJJC2
Description: (§1) Using 6DCNU and 6MCαG, minimum inhibiting concentrations (referred to as "MIC") for various kinds of bacteria were estimated by means of the broth-dilution method.

[2] = test system: Pseudomonas aeruginosa IFO 3080; assay: Antibacterial activity, broth-dilution method; type: cell-based; settings: IFO3080
Description: as §1

[3] = test system: Proteus vulgaris AHU 1469; assay: Antibacterial activity, broth-dilution method; type: cell-based; settings: AHU1469
Description: as §1

[4] = test system: Shigella sonnei; assay: Antibacterial activity, broth-dilution method; type: cell-based
Description: as §1

[5] = test system: Sarcina lutea ATCC 9341; assay: Antibacterial activity, broth-dilution method; type: cell-based; settings: Micrococcus luteus, ATCC9341
Description: as §1

[6] = test system: Staphylococcus aureus FDA 209P JC-1; assay: Antibacterial activity, broth-dilution method; type: cell-based; settings: FDA209P
Description: as §1

[7] = test system: Streptococcus faecalis AHU 1085; assay: Antibacterial activity, broth-dilution method; type: cell-based; settings: Enterococcus faecalis, AHU1085
Description: as §1

[8] = test system: Mycobacterium smegmatis ATCC 607; assay: Antibacterial activity, broth-dilution method; type: cell-based; settings: Mycolicibacterium smegmatis, ATCC607
Description: as §1

[9] = test system: Bacillus subtilis ATCC 6633; assay: Antibacterial activity, broth-dilution method; type: cell-based; settings: ATCC6633
Description: as §1

[10] = test system: Klebsiella pneumoniae IFM 3008; assay: Antibacterial activity, broth-dilution method; type: cell-based; settings: IFM3008
Description: as §1

[11] = Effect on respiration, blood pressure, heart rate and electrocardiogram; type: in vivo, Beagle dogs; settings: for NOAEL: dog, in vivo, iv, injected into brachial veins, anesthetized Beagle dogs, read-out: maximum dosage not effected on respiration, blood pressure, heart rate and electrocardiogram
Experimental: Beagle dogs of both sexes weighing about 10 kg were anesthetized with pentobarbital sodium (30 mg/kg, i.v.), and immobilized in the supine position. Test compounds dissolved in physiological saline solution were injected into the brachial veins of the animals and the arteries at cannulated positions were treated with heparin sodium as anticoagulant.
The respiration rate of each animal was estimated with a respirometer (Nihonkohden, RP-3) through a tracheal cannula, the blood pressure with an electro-haemodynamometer (Nihonkohden, MP-4T) attached surgically to the femoral artery, and the heart rate with a pulse-rate tachometer (Nihonkohden, RT-2) through the trigger pulse of the blood pressure.

[12] = Acute toxicity (LD50); type: in vivo, male Wister rats; settings: for LD50 at 168 h: rat, in vivo, after 1 week
Experimental: Test compounds were dissolved in physiological saline solution just before their dosage and administered to male Wister rats, intraperitoneally, intravenously and orally. After 1 week, the LD50 of each compound was calculated from the mortality of the test animals by the Lichfield-Wilcoxon Method.
i.v.: intravenous administration

[13] = Diabetogenic activity (blood glucose concentration after intravenous administration); type: in vivo, male Wister rats; settings: for blood glucose concentrations versus control, in words: i.v., rats
Experimental: 40-96 mg/kg of the test compounds were administered intravenously to starved male Wister rats weighing 240-260 g each, and the blood glucose concentrations of the test animals were estimated by the glucose exidase method [L. L. Saloman et al: Anal. Chem., 31 (1959), 453], in which test the compounds were dissolved in physiological saline solution just before administration. […]

[14] = Solubility in water at 25° C.; type: physicochemical; settings: for solubility: amount soluble in 1 ml water at 25° C.
[15] = Absorption and excretion of 14C-labelled compounds; type: in vivo, rats; settings: for absorption, in words / excretion rate, intravenous versus oral administration, in words / main route of excretion, in words: rats, 14C-labelled
Experimental: The carbon atom at the 2-position of the chloroethyl group (i.e. ClCH2 CH2 -) of 6DCNU and 6MCαG was labelled with radioactive ^14 C, and the absorption and excretion of these compounds were tested using rats.

[16] = 40 mg/kg i.v., 0 hr after treatment
[17] = 40 mg/kg i.v., 2 hr after treatment
[18] = 40 mg/kg i.v., 4 hr after treatment
[19] = 40 mg/kg i.v., 7 hr after treatment
[20] = 40 mg/kg i.v., 10 hr after treatment
[21] = 40 mg/kg i.v., 24 hr after treatment
[22] = 40 mg/kg i.v., 48 hr after treatment
[23] = 60 mg/kg i.v., 0 hr after treatment
[24] = 60 mg/kg i.v., 2 hr after treatment
[25] = 60 mg/kg i.v., 4 hr after treatment
[26] = 60 mg/kg i.v., 7 hr after treatment
[27] = 60 mg/kg i.v., 10 hr after treatment
[28] = 60 mg/kg i.v., 24 hr after treatment
[29] = 60 mg/kg i.v., 48 hr after treatment

## O=NN(CCCl)C(=O)NC[C@H]1OC(O)[C@H](O)[C@@H](O)[C@@H]1O (stereo partly drawn) [Example 6DCNU, 3-(D-glucopyranos-6-yl)-1-(2-chloroethyl)-1-nitrosourea]
[1]
  MIC: > 200 µg/mL
[2]
  MIC: > 200 µg/mL
[3]
  MIC: > 200 µg/mL
[4]
  MIC: > 200 µg/mL
[5]
  MIC: > 200 µg/mL
[6]
  MIC: > 200 µg/mL
[7]
  MIC: > 200 µg/mL
[8]
  MIC: > 200 µg/mL
[9]
  MIC: > 200 µg/mL
[10]
  MIC: > 200 µg/mL
[11]; Beagle dogs
  maximum dosage without effect, comparison in words: highest dosage value
[11]
  NOAEL: 70 mg/kg
[12]; ip
  LD50 at 168 h: 90 mg/kg
[12]; iv
  LD50 at 168 h: 85 mg/kg
[12]; po
  LD50 at 168 h: 132 mg/kg
[12]; rats
  LD50, comparison in words: higher than that of the other known compounds
[13]; [16]
  Blood Glucose Concentration: 70.4 mg/dL
[13]; [17]
  Blood Glucose Concentration: 73.3 mg/dL
[13]; [18]
  Blood Glucose Concentration: 67.7 mg/dL
[13]; [19]
  Blood Glucose Concentration: 68.2 mg/dL
[13]; [20]
  Blood Glucose Concentration: 68.3 mg/dL
[13]; [21]
  Blood Glucose Concentration: 69.9 mg/dL
[13]; [22]
  Blood Glucose Concentration: 73.8 mg/dL
[13]; [23]
  Blood Glucose Concentration: 72.0 mg/dL
[13]; [24]
  Blood Glucose Concentration: 74.2 mg/dL
[13]; [25]
  Blood Glucose Concentration: 78.3 mg/dL
[13]; [26]
  Blood Glucose Concentration: 76.8 mg/dL
[13]; [27]
  Blood Glucose Concentration: 79.2 mg/dL
[13]; [28]
  Blood Glucose Concentration: 78.7 mg/dL
[13]; [29]
  Blood Glucose Concentration: 79.4 mg/dL
[13]; 77 mg/kg i.v., 0 hr after treatment
  Blood Glucose Concentration: 72.4 mg/dL
[13]; 77 mg/kg i.v., 2 hr after treatment
  Blood Glucose Concentration: 75.3 mg/dL
[13]; 77 mg/kg i.v., 4 hr after treatment
  Blood Glucose Concentration: 75.8 mg/dL
[13]; 77 mg/kg i.v., 7 hr after treatment
  Blood Glucose Concentration: 79.8 mg/dL
[13]; 77 mg/kg i.v., 10 hr after treatment
  Blood Glucose Concentration: 76.2 mg/dL
[13]; 77 mg/kg i.v., 24 hr after treatment
  Blood Glucose Concentration: 78.2 mg/dL
[13]; 77 mg/kg i.v., 48 hr after treatment
  Blood Glucose Concentration: 80.5 mg/dL
[13]
  blood glucose concentrations versus control, in words: substantially the same blood glucose concentrations as that in the control
[13]; rat, in vivo
  diabetogenic activity, in words: low diabetogenic activity
[14]
  solubility: 750 mg/mL (≈ 2390 mM)
[14]; water, 25° C.
  solubility in water, comparison in words: higher than that of both DCNU and 2MCαG and is almost equal to that of 6MCαG
[15]
  absorption, in words: absorbed well
  excretion rate, intravenous versus oral administration, in words: almost the same excretion rates
  main route of excretion, in words: excreted mainly in the urine
[15]; versus 6MCαG
  excretion in faeces, comparison in words: excreted more than 6MCαG in faeces
  excretion velocity, comparison in words: more rapid than that of 6MCαG
  toxicity inferred from excretion, in words: less toxic than 6MCαG

## CO[C@H]1O[C@H](CNC(=O)N(CCCl)N=O)[C@@H](O)[C@H](O)[C@H]1O [Example 6MCαG, 1-(2-chloroethyl)-3-(methyl α-D-glucopyranos-6-yl)-1-nitrosourea]
[1]
  MIC: > 200 µg/mL
[2]
  MIC: > 200 µg/mL
[3]
  MIC: > 200 µg/mL
[4]
  MIC: > 200 µg/mL
[5]
  MIC: > 200 µg/mL
[6]
  MIC: > 200 µg/mL
[7]
  MIC: > 200 µg/mL
[8]
  MIC: > 200 µg/mL
[9]
  MIC: > 200 µg/mL
[10]
  MIC: > 200 µg/mL
[11]
  NOAEL: 50 mg/kg
[12]; ip
  LD50 at 168 h: 42 mg/kg
[12]; iv
  LD50 at 168 h: 42 mg/kg
[12]; po
  LD50 at 168 h: 50 mg/kg
[13]; [16]
  Blood Glucose Concentration: 72.0 mg/dL
[13]; [17]
  Blood Glucose Concentration: 75.9 mg/dL
[13]; [18]
  Blood Glucose Concentration: 79.3 mg/dL
[13]; [19]
  Blood Glucose Concentration: 71.7 mg/dL
[13]; [20]
  Blood Glucose Concentration: 79.4 mg/dL
[13]; [21]
  Blood Glucose Concentration: 73.1 mg/dL
[13]; [22]
  Blood Glucose Concentration: 75.3 mg/dL
[13]; [23]
  Blood Glucose Concentration: 71.8 mg/dL
[13]; [24]
  Blood Glucose Concentration: 72.5 mg/dL
[13]; [25]
  Blood Glucose Concentration: 69.8 mg/dL
[13]; [26]
  Blood Glucose Concentration: 68.7 mg/dL
[13]; [27]
  Blood Glucose Concentration: 67.7 mg/dL
[13]; [28]
  Blood Glucose Concentration: 68.4 mg/dL
[13]; [29]
  Blood Glucose Concentration: 70.8 mg/dL
[13]; 80 mg/kg i.v., 0 hr after treatment
  Blood Glucose Concentration: 73.7 mg/dL
[13]; 80 mg/kg i.v., 2 hr after treatment
  Blood Glucose Concentration: 82.0 mg/dL
[13]; 80 mg/kg i.v., 4 hr after treatment
  Blood Glucose Concentration: 78.3 mg/dL
[13]; 80 mg/kg i.v., 7 hr after treatment
  Blood Glucose Concentration: 77.8 mg/dL
[13]; 80 mg/kg i.v., 10 hr after treatment
  Blood Glucose Concentration: 73.6 mg/dL
[13]; 80 mg/kg i.v., 24 hr after treatment
  Blood Glucose Concentration: 76.3 mg/dL
[13]; 80 mg/kg i.v., 48 hr after treatment
  Blood Glucose Concentration: 83.1 mg/dL
[13]
  blood glucose concentrations versus control, in words: substantially the same blood glucose concentrations as that in the control
[14]
  solubility: 900 mg/mL (≈ 2750 mM)
[15]
  absorption, in words: absorbed well
  excretion rate, intravenous versus oral administration, in words: almost the same excretion rates
  main route of excretion, in words: excreted mainly in the urine
